The target of one test is human telomerase (Homo sapiens, UniProt O14746). The experiment in a line: Telomerase inhibition, primer extension assay in HeLa cell extract. It counts as biochemical.
human telomerase, sequence (O14746 whole entry): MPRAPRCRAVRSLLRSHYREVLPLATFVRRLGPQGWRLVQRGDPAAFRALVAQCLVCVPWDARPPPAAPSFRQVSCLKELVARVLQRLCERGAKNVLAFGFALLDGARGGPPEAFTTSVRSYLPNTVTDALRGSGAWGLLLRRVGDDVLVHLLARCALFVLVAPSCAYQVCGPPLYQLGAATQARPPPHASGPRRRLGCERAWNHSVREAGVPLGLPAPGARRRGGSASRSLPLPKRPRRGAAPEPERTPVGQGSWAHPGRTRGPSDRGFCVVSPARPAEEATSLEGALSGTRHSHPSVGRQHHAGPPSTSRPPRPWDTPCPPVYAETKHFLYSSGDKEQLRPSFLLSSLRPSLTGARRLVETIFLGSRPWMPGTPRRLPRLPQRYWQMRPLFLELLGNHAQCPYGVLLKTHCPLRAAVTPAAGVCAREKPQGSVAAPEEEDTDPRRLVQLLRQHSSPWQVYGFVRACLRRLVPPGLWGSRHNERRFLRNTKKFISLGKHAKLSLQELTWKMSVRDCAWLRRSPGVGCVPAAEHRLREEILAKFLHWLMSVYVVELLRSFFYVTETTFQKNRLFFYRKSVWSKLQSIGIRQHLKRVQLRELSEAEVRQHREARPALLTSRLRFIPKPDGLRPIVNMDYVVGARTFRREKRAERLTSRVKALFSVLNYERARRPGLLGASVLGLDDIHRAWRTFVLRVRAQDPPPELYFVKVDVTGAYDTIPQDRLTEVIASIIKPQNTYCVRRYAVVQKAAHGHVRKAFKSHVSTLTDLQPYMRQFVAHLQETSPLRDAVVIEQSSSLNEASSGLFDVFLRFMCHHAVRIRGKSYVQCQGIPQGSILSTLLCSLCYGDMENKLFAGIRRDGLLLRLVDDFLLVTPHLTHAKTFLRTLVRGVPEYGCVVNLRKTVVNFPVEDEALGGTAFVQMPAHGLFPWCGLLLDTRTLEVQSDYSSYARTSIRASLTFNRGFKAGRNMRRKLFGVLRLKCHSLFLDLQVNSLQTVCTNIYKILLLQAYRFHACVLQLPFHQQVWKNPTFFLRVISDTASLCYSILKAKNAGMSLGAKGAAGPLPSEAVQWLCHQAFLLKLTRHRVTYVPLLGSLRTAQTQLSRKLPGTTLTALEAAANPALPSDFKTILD
Details: not given
For the compound “5,10-di-(N-methyl-4-pyridyl)-15,20-di-(3-nitrophenyl)porphine chloride [Compound D20]”, the “telomerase inhibition in words” value is “good activity”.

Still in this test, the particulars now being: 25 μM; Table 5; read-out: % Inhibition of telomerase.
The term inhibition denotes the drop in the measured response relative to a control, in per cent. As for `C[n+]1ccccc1-c1c2nc(c(-c3cccc[n+]3C)c3ccc([nH]3)c(-c3cccc[n+]3C)c3nc(c(-c4cccc[n+]4C)c4ccc1[nH]4)C=C3)C=C2` [Compound B8, Tetra(N-methyl-2-pyridyl)porphyrin chloride], the inhibition at 25 µM is 0%.

The test is the same for the next values; noted with them: 25 μM; Table 6.
With “5,10-di-(N-methyl-3-quinolyl)-15,20-di-(N-methyl-3-pyridyl)porphine chloride [Compound D12]”, the “% Inhibition of telomerase” value amounted to 80%.

Still in this test, the particulars now being: 25 μM; Table 7; read-out: % Inhibition of telomerase.
Regarding `C[n+]1ccc(-c2c3nc(c(-c4ccccc4)c4ccc([nH]4)c(-c4cc[n+](C)cc4)c4nc(c(-c5ccccc5)c5ccc2[nH]5)C=C4)C=C3)cc1` [Compound B4, 5,15-Diphenyl-10,20-di(N-methyl-4-pyridyl)porphyrin chloride], the inhibition at 25 µM stood at 30%. `C[n+]1ccc(-c2c3nc(c(-c4ccccc4)c4ccc([nH]4)c(-c4ccccc4)c4nc(c(-c5cc[n+](C)cc5)c5ccc2[nH]5)C=C4)C=C3)cc1` [Compound B5, 5,10-Diphenyl-15,20-di(N-methyl-4-pyridyl)porphyrin chloride]: the inhibition at 25 µM stood at 20%. Still for that read-out and setting: in the case of `C[n+]1ccc(-c2c3nc(c(-c4cc[n+](C)cc4)c4ccc([nH]4)c(-c4cc[n+](C)cc4)c4nc(c(-c5ccccc5)c5ccc2[nH]5)C=C4)C=C3)cc1` [Compound B6, Tri(N-methyl-4-pyridyl)phenylporphyrin chloride] it was 15%; in that of `C[n+]1cccc(-c2c3nc(c(-c4ccccc4)c4ccc([nH]4)c(-c4ccc[n+](C)c4)c4nc(c(-c5ccccc5)c5ccc2[nH]5)C=C4)C=C3)c1` [Compound B9, 5,15-Diphenyl-10,20-di(N-methyl-3-pyridyl)porphyrin chloride], 18%; in that of `C[n+]1cccc(-c2c3nc(c(-c4ccc[n+](C)c4)c4ccc([nH]4)c(-c4ccc[n+](C)c4)c4nc(c(-c5ccccc5)c5ccc2[nH]5)C=C4)C=C3)c1` [Compound B10, Tri(N-methyl-3-pyridyl)phenylporphyrin chloride], 42%. Still for that read-out and setting: in the case of `C[n+]1cccc(-c2c3nc(c(-c4ccc[n+](C)c4)c4ccc([nH]4)c(-c4ccccc4)c4nc(c(-c5ccccc5)c5ccc2[nH]5)C=C4)C=C3)c1` [Compound B22] it was 20%. As for `C[n+]1ccc(-c2c3nc(c(-c4ccccc4)c4ccc([nH]4)c(-c4ccccc4)c4nc(c(-c5ccccc5)c5ccc2[nH]5)C=C4)C=C3)cc1` [Compound B24], the inhibition at 25 µM worked out at 34%. With `C[n+]1cccc(-c2c3nc(c(-c4ccccc4)c4ccc([nH]4)c(-c4ccccc4)c4nc(c(-c5ccccc5)c5ccc2[nH]5)C=C4)C=C3)c1` [Compound B25], the inhibition at 25 µM was 35%. Regarding `C[n+]1ccccc1-c1c2nc(c(-c3ccccc3)c3ccc([nH]3)c(-c3ccccc3)c3nc(c(-c4ccccc4)c4ccc1[nH]4)C=C3)C=C2` [Compound B26], the inhibition at 25 µM turned out to be 0%. Consider `Cc1ccc(-c2c3nc(c(-c4ccc(C)cc4)c4ccc([nH]4)c(-c4cc[n+](C)cc4)c4nc(c(-c5ccc(C)cc5)c5ccc2[nH]5)C=C4)C=C3)cc1` [Compound D9, 5-(N-methyl-4-pyridyl)-10,15,20-(4-methylphenyl)porphine chloride], for which the inhibition at 25 µM turned out to be 31%.

The same test, now with this note: 25 μM; Table 9; read-out: % Inhibition of telomerase.
For the compound `O=[N+]([O-])c1cc(-c2c3nc(cc4ccc([nH]4)c(-c4ccc(O)c([N+](=O)[O-])c4)c4nc(cc5ccc2[nH]5)C=C4)C=C3)ccc1O` [Compound D14], the inhibition at 25 µM turned out to be 55%.

`COc1ccc(-c2c3nc(c(-c4ccc(OC)c(O)c4)c4ccc([nH]4)c(-c4ccc(OC)c(O)c4)c4nc(c(-c5ccc(OC)c(O)c5)c5ccc2[nH]5)C=C4)C=C3)cc1O` [Compound D17, 5,10,15,20-tetra-(4-methoxy-3-hydroxyphenyl)porphine]: the inhibition at 25 µM was 50%.

Still in this test, the particulars now being: 25 μM; Table 10.
Consider “5,10-di-(N-methyl-4-pyridyl)-15,20-di-(3-nitrophenyl)porphine chloride [Compound D20]”, for which the “% Inhibition of telomerase” value was 70%.

Staying with this test, now noted: 25 μM; Table 13; read-out: % Inhibition of telomerase.
`Nc1ccc(-c2c3nc(c(-c4ccc(N)cc4)c4ccc([nH]4)c(-c4ccc(N)cc4)c4nc(c(-c5ccc(N)cc5)c5ccc2[nH]5)C=C4)C=C3)cc1` [Compound B1, Tetra-(4-aminophenyl)porphyrin]: the inhibition at 25 µM turned out to be 50%. In the case of `Nc1cccc(-c2c3nc(c(-c4cccc(N)c4)c4ccc([nH]4)c(-c4cccc(N)c4)c4nc(c(-c5cccc(N)c5)c5ccc2[nH]5)C=C4)C=C3)c1` [Compound B2, Tetra-(3-aminophenyl)porphyrin], the inhibition at 25 µM was determined as 15%. On to `Nc1ccccc1-c1c2nc(c(-c3ccccc3N)c3ccc([nH]3)c(-c3ccccc3N)c3nc(c(-c4ccccc4N)c4ccc1[nH]4)C=C3)C=C2` [Compound B3, Tetra-(2-aminophenyl)porphyrin], for which the inhibition at 25 µM was found to be 3%. The same measure, in the same setting: next, `C[n+]1ccc(-c2c3nc(c(-c4ccccc4)c4ccc([nH]4)c(-c4cc[n+](C)cc4)c4nc(c(-c5ccccc5)c5ccc2[nH]5)C=C4)C=C3)cc1` [Compound B4, 5,15-Diphenyl-10,20-di(N-methyl-4-pyridyl)porphyrin chloride]: 47%.

The same test, now with this note: Table 15; concentration fixed at 25 μM; 25 µM.
`C=CC1=C(C)c2cc3[nH]c(cc4nc(cc5[nH]c(cc1n2)c(C)c5C=C)C(C)=C4CCC(=O)O)c(CCC(=O)O)c3C` [Compound H19]: the “% Inhibition of telomerase” value amounted to 16%.

The test is the same for the next values; noted with them: Table 15; concentration fixed at 25 μM; read-out: % Inhibition of telomerase.
As for `CCC1=C(CC)c2cc3[nH]c(cc4nc(cc5[nH]c(cc1n2)c(CC)c5CC)C(CC)=C4CC)c(CC)c3CC` [Compound H1], the inhibition at 25 µM is 12%.

For the compound `CCC1=C(C)c2cc3[nH]c(cc4nc(cc5[nH]c(cc1n2)c(C)c5CC)C(C)=C4CC)c(CC)c3C` [Compound H2], the inhibition at 25 µM was determined as 0%. For `COC(=O)CCC1=C(C)c2cc3cc(C)c(cc4nc(cc5[nH]c(cc1n2)c(CCC(=O)OC)c5C)C(C)=C4)[nH]3` [Compound H7], the inhibition at 25 µM is 14%. With `COC(=O)CCC1=C(C)c2cc3[nH]c(cc4nc(cc5[nH]c(cc1n2)c(CCC(=O)OC)c5C)C(C)=C4S(=O)(=O)O)c(C)c3S(=O)(=O)O` [Compound H8], the inhibition at 25 µM came to 24%. On to `COC(=O)CCC1=C(C)c2cc3[nH]c(cc4nc(cc5[nH]c(cc1n2)c(CCC(=O)OC)c5C)C(C)=C4C(C)=O)c(C)c3C(C)=O` [Compound H9], for which the inhibition at 25 µM was found to be 14%. Regarding `COC(=O)CCC1=C(C)c2cc3[nH]c(cc4nc(cc5[nH]c(cc1n2)c(CCC(=O)OC)c5C)C(C)=C4Br)c(C)c3Br` [Compound H10], the inhibition at 25 µM was 0%. In the case of `COC(=O)CCC1=C(C)c2cc3[nH]c(cc4nc(cc5[nH]c(cc1n2)c(CCC(=O)OC)c5C)C(C)=C4C(C)O)c(C)c3C(C)O` (stereo not drawn) [Compound H11], the inhibition at 25 µM turned out to be 20%. Regarding `CC1=C(CCC(=O)O)c2cc3[nH]c(cc4nc(cc5[nH]c(cc1n2)c(C(C)O)c5C)C(C(C)O)=C4C)c(C)c3CCC(=O)O` (stereo not drawn) [Compound H12], the inhibition at 25 µM is 18%. In the case of `CCC1=C(C)c2cc3[nH]c(cc4nc(cc5[nH]c(cc1n2)c(C)c5CC)C(C)=C4CCC(=O)O)c(CCC(=O)O)c3C` [Compound H15], the inhibition at 25 µM was found to be 6%.

`CCC1=C(C)c2cc3[nH]c(cc4nc(cc5[nH]c(cc1n2)c(C)c5CC)C(C)=C4CCC(=O)OC)c(CCC(=O)OC)c3C` [Compound H16]: the inhibition at 25 µM was determined as 0%. As for `C=CC1=C(C)c2cc3[nH]c(cc4nc(cc5[nH]c(cc1n2)c(C)c5C=C)C(C)=C4CCC(=O)OC)c(CCC(=O)OC)c3C` [Compound H17], the inhibition at 25 µM amounted to 6%. Regarding `C=CC1=C(C)c2cc3[nH]c(cc4nc(cc5[nH]c(cc1n2)c(C)c5C=C)C(C)=C4CCC(=O)O)c(CCC(=O)O)c3C` [Compound H18], the inhibition at 25 µM worked out at 17%. For `COC(=O)CCC1=C(C)c2cc3[nH]c(cc4nc(cc5[nH]c(cc1n2)c(CCC(=O)OC)c5C)C(C)=C4CCC(=O)OC)c(CCC(=O)OC)c3C` [Compound H21], the inhibition at 25 µM was determined as 33%.

As for `COC(=O)CCC1=C(CC(=O)OC)c2cc3[nH]c(cc4nc(cc5[nH]c(cc1n2)c(CCC(=O)OC)c5CC(=O)OC)C(CC(=O)OC)=C4CCC(=O)OC)c(CCC(=O)OC)c3CC(=O)OC` [Compound H22], the inhibition at 25 µM amounted to 19%.

For `CC1=C(CCC(=O)O)c2cc3[nH]c(cc4nc(cc5[nH]c(cc1n2)c(C)c5CCC(=O)O)C(CCC(=O)O)=C4C)c(C)c3CCC(=O)O` [Compound H23], the inhibition at 25 µM amounted to 5%.

Turning to `O=C(O)CCC1=C(CC(=O)O)c2cc3[nH]c(cc4nc(cc5[nH]c(cc1n2)c(CCC(=O)O)c5CC(=O)O)C(CC(=O)O)=C4CCC(=O)O)c(CCC(=O)O)c3CC(=O)O` [Compound H24], the inhibition at 25 µM is 4%.

Regarding `CCOC(=O)CCc1c(C)c2cc3nc(cc4[nH]c(cc5nc(cc1[nH]2)C(C)=C5CC)c(C)c4CC)C(C)=C3C(=O)OCC` [Compound H25], the inhibition at 25 µM turned out to be 18%. As for `CCC1=C(C)c2cc3[nH]c(cc4nc(cc5[nH]c(cc1n2)c(C)c5CC)C(C)=C4CCCO)c(CCCO)c3C` [Compound H26], the inhibition at 25 µM came out at 23%. Take `C=CC1=C(C)c2cc3[nH]c(cc4nc(cc5[nH]c(cc1n2)c(C)c5C=C)C(C)=C4CCCO)c(CCCO)c3C` [Compound H27]: the inhibition at 25 µM was 24%. On the same count and under the same terms, in the case of `CCOC(=O)CCC1=C(C)c2cc3[nH]c(cc4nc(cc5[nH]c(cc1n2)c(CC)c5C)C(CC)=C4C)c(C)c3C` [Compound H28] it was 0%; in that of `CC(=O)C1=C(C)c2cc3[nH]c(cc4nc(cc5[nH]c(cc1n2)c(C)c5C(C)=O)C(C)=C4CCC(=O)O)c(C)c3CCC(=O)O` [Compound H29], 0%; in that of `COC(=O)CCC1=C(C)c2cc3[nH]c(cc4nc(cc5[nH]c(cc1n2)c(C)c5CCC(=O)OC)C(C)=C4C)c(C)c3C` [Compound H30], 23%.

On to `CC1=C(C=O)c2cc3[nH]c(cc4nc(cc5[nH]c(cc1n2)c(CCC(=O)O)c5C)C(CCC(=O)O)=C4C)c(C=O)c3C` [Compound H31], for which the inhibition at 25 µM is -10%.

Take `CCC1=C(C)c2cc3[nH]c(cc4nc(cc5[nH]c(cc1n2)c(C)c5CC)C(C)=C4)c(C)c3CC(=O)OC` [Compound H32]: the inhibition at 25 µM amounted to 0%.

For the origin of these results see patent US6087493A, “Porphyrin compounds as telomerase inhibitors” (Regents of the University of Texas System, priority 1998, dated 2000).
